Where two headings read alike, the source gives them in different places.
Columns and labels:
[1] = test system: USA WA-01 strain of SARS CoV-2; test: Example 2 anti-coronavirus activity in Vero E6 cells (qPCR spike RNA); format: cell-based; conditions: Vero C1008, SARS CoV-2 USA WA-01, Vero E6 cells, MOI 0.1, 48 hours
Method: Ten thousand Vero E6 cells were seeded in 100 microliters of culture medium in 96 well plates. The following day serial two-fold dilutions of antiviral compounds or the DMSO-containing vehicle were added to each well. The USA WA-01 strain of SARS CoV-2 was added to each well at a multiplicity of infection of 0.1 thirty minutes later. Cells were incubated for 48 hours, washed twice in PBS and lysed with TRIzol. RNA was extracted using Directzol micro RNA columns. RNA was made into cDNA and assayed for the SARS CoV-2 spike protein and for a housekeeping gene (RPLPO) RNA by qPCR. Data represents the average of duplicate wells. Cellular cytotoxicity was also measured in VERO E6 cells. […] Cytotoxicity (CC50) was assessed using a commercially available MTT assay.

[2] = test system: SARS-CoV-2 isolate USA-WA1/2020; test: Example 3 SARS-CoV-2 infection in Vero E6 cells (qRT-PCR Spike RNA); format: cell-based; conditions: for EC50 / EC90: Severe acute respiratory syndrome coronavirus 2, Vero C1008, SARS-CoV-2 USA-WA1/2020, Vero E6 cells, MOI 0.01, 48 hours, mean±SD
VERO E6 cells = test: Example 4 generation of remdesivir triphosphate in Vero E6 cells (LC/MS/MS); format: in vitro ADME, monkey
Method: In this example, Vero E6 cells were plated in 6 well plates at about 3.4×10^5 cells per well in 2 mL of media (DMEM, 10% FBS).
Cells were then incubated at 37° C. for 24 hours. Media was then aspirated and replaced with 2 ml of control media (fresh Dulbecco's Modified Eagle's Medium (DMEM), 10% FBS) or 2 mL of media with drug at a concentration of 1 μM. Cell were incubated with the various drugs for 48 hours. The media was aspirated, the cells rinsed twice with phosphate-buffered saline (PBS), trypsinized for 5 minutes with 1 mL ATV, triturated and removed to a 15 mL centrifuge tube, rinsed with 1 mL PBS, which was also then removed to the 15 mL centrifuge tube, and the cells were triturated again. Cells were counted in a Reichert hemocytometer using two 10 μL samples, and the number of cells in each sample was determined.
Cells were centrifuged at 1200 rpm for 10 minutes, diluent aspirated and the pellet resuspended in 250 μL of methanol/distilled water (70/30) and analyzed by LC/MS/MS. The results, which are depicted at FIG. 3, were in picomoles/10^6 cells and are the average of two or three determinations.

[3] = test system: SARS-CoV-2 isolate USA-WA1/2020; test: Example 7 SARS-CoV-2 infection in PSC-human lung cells (qRT-PCR); format: cell-based
[4] = test system: SARS-CoV-2 isolate USA-WA1/2020; test: Example 7 SARS-CoV-2 infection in Calu-3 cells (qRT-PCR); format: cell-based; conditions: for EC50 / EC90: Severe acute respiratory syndrome coronavirus 2, SARS-CoV-2, Calu-3 cells, MOI 0.01, 48 hours
[5] = test system: SARS-CoV-2 isolate USA-WA1/2020; test: Example 7 SARS-CoV-2 infection in Huh7.5 cells (qRT-PCR); format: cell-based; conditions: for EC50 / EC90: Severe acute respiratory syndrome coronavirus 2, SARS-CoV-2, Huh7.5 cells, MOI 0.01, 48 hours, qRT-PCR, Example 7
[6] = test system: SARS-CoV-2 isolate USA-WA1/2020; test: Example 7 SARS-CoV-2 infection in Caco-2 cells (qRT-PCR); format: cell-based
SARS-CoV-2 [7] = test: Example 7 SARS-CoV-2 antiviral activity, summary across the five cell types; format: cell-based; conditions: Severe acute respiratory syndrome coronavirus 2; SARS-CoV-2, five cell types of Example 7; read-out: EC50, range across cell types
[8] = Example 7 cytotoxicity, summary across all cell lines; format: cell-based; conditions: monkey, human; five cell types of Example 7, 48 hours
Method: The cytotoxicity of each compound by incubating each of these cell lines with serial dilutions of each compound from 1.23 μM to 100 μM for 48 hours. […] The selectivity index of ODBG-P-RV ranged from 295 to 699 in the five cell types tested in this example).

Human Coronavirus 229E [9] = test: Example 8 human coronavirus 229E in MRC-5 cells (CPE, MTT); format: cell-based
Method: Human Coronavirus 229E (ATCC) was propagated and infectious units quantified by TCID50 using MRC-5 cells. For antiviral testing, approximately 10^4 MRC-5 cells were seeded per well in EMEM (10% FCS) at 37 C in a 96 well plate overnight. Medium from each well was removed and cells were infected with 100 TCID50 virus in 100 μL medium for two hours.
Cells were washed one time with medium and then compounds or controls added at the indicated concentrations. After three days, CPE was observed under microscope and quantified using an MTT cell proliferation assay kit (Abcam) read on an ELx800, Universal Microplate reader (BIO-TEK Instruments, INC). The % Inhibition was calculated as (Atv−Acv)/(Acd−Acv)×100% where Atv indicates the absorbance of the test compounds with virus infected cells and A, and Aca indicate the absorbance of the virus control and the absorbance of the cell control, respectively. The average half-maximal effective concentration (EC50) was defined as the concentration which achieved 50% inhibition of virus-induced cytopathic effects.
FIG. 4A and FIG. 4B: ODBG-P-RVn (15d) inhibits the human Alphacoronavirus 229E. […] Cells were infected with 229E for 2 hours followed by treatment with the indicated dose of the indicated drug for 72 hours. The relative CPE was determined by measuring cell viability using an MTT assay.

[10] = Example 8 cytotoxicity in MRC-5 cells (CellTiter-Glo); format: cell-based; conditions: human
Method: FIG. 4B depicts the cytotoxicity in MRC-5 cells incubated in the presence of the indicated drug at the indicated concentration for 72 hours, after which cell viability was measured by the CellTiter-Glo assay. Data points indicate the averages from 3 independent experiments performed in duplicate. Error bars represent the standard error mean (SEM).

[11] = after intravenous infusion; cited from earlier work
[12] = Example 7 cell viability assay (CellTiter-Glo) in Huh7.5 cells; conditions: human
[13] = Example 7 cell viability assay (CellTiter-Glo) in Vero E6 cells; conditions: monkey
[14] = Example 7 cell viability assay (CellTiter-Glo) in PSC-human lung cells
[15] = format: in vivo; conditions: Syrian hamsters, sodium salt
Method: ODBG-P-RVn in 0.1M sodium carbonate/bicarbonate buffer, pH 9.0, was administered to Syrian Hamsters by oral gavage every 12 hours for seven days. ODBG-P-RVn was present as the sodium salt.
FIG. 5A and FIG. 5B depict the seven day oral pharmacokinetics in Syrian hamsters. Syrian hamsters were given vehicle or ODBG-P-RVn by oral gavage every 12 hours for 7 days. Groups of 3 animals received vehicle or drug at doses of 16.9 and 13.2 mg/kg. Animals were weighed daily and monitored for clinical signs.
Analytical Methods: ODBG-P-RVn: Hamster plasma samples (10 μL) containing ODBG-P-RVn and K2EDTA as the anticoagulant were added to polypropylene tubes containing water (100 μL), internal standard solution (10 μL; 1,000 ng/mL of ODE-P-RVn in ACN:DMF (1:1, v/v)), and 10 μL of ACN:DMF (1:1, v/v). The solutions were mixed, then acidified with phosphoric acid, 85% w/v:water (1:19, v/v; 10 μL), mixed, then diluted with 200 μL of IPA, mixed, then diluted with 500 μL of water, and mixed. […] The ODBG-P-RVn extracts were analyzed using an Agilent 1200 HPLC system (Agilent, Santa Clara, CA) coupled to an API5500 mass analyzer (SCIEX, Foster City, CA). […]
The solutions were mixed and centrifuged at 16,000 g for five minutes. […] The GS-441524 extracts were analyzed using an Acquity UPLC system (Waters, Milford, MA) coupled to a G2-S QTof mass analyzer (Waters, Milford, MA). […]

Human Coronavirus 229E [16] = format: cell-based; conditions: HCoV-229E in MRC-5 cells, three days, CPE by MTT
SARS-CoV-2 [17] = test: Example 6 SARS-CoV-2 infection assay in Huh7.5 cells (nucleocapsid immunofluorescence); format: cell-based; conditions: SARS CoV-2, Huh7.5 cells, MOI 0.1, 48 hours, percent infected cells
SARS-CoV-2 [18] = test: Example 6 SARS-CoV-2 infection assay in TMPRSS2-Vero cells (nucleocapsid immunofluorescence); format: cell-based; conditions: SARS CoV-2, TMPRSS2-Vero cells, MOI 0.01, 32 hours, percent infected cells
[19] = test system: SARS-CoV-2 isolate USA-WA1/2020; test: Example 7 SARS-CoV-2 infection in Vero E6 cells (qRT-PCR); format: cell-based; conditions: Severe acute respiratory syndrome coronavirus 2, Vero C1008, SARS-CoV-2, Vero E6 cells, MOI 0.01, 48 hours
[20] = Example 2 cellular cytotoxicity in Vero E6 cells (MTT); conditions: monkey
[21] = Severe acute respiratory syndrome coronavirus 2, SARS-CoV-2, PSC-human lung cells, MOI 0.01, 48 hours
[22] = Severe acute respiratory syndrome coronavirus 2, SARS-CoV-2, Caco-2 cells, MOI 0.01, 48 hours

CCC(CC)COC(=O)[C@H](C)N[P@](=O)(OC[C@H]1O[C@@](C#N)(c2ccc3c(N)ncnn23)[C@H](O)[C@@H]1O)Oc1ccccc1 [RDV, Remdesivir]
EC50 [1]: 3160 nM | EC90 [1]: 5500 nM | EC50 [2]: 4600 nM | EC90 [2]: 8900 ± 4900 nM | levels of RVn-TP (VERO E6 cells; 1 μM drug, at 8 and 24 hours): below the level of quantification | EC50 [3, 21]: 140 nM | EC90 [3, 21]: 230 nM | EC50 [4]: 230 nM | EC90 [4]: 310 nM | EC50 [5]: 60 nM | EC90 [5]: 120 nM | EC50 [6, 22]: 170 nM | EC90 [6, 22]: 280 nM | EC50 (SARS-CoV-2 [7]): 60 to 1130 nM | CC50 at 48 h [8]: ≥ 15200 nM | EC50 (Human Coronavirus 229E [9]; MRC5, 229E in MRC-5 cells, 72 hours, CPE by MTT, Example 8): 40 nM | EC90 (Human Coronavirus 229E [9]; MRC5, 72 h): 260 nM | CC50 at 72 h [10]: > 50000 nM | persistence in plasma at virologically significant levels [11]: less than 2 hours | CC50 at 48.5 h [12]: 15200 nM | CC50 at 48.5 h [13]: 101000 nM | CC50 at 48.5 h [14]: 32700 nM

CCCCCCCCCCCCCCCCCCOC[C@H](COP(=O)(O)OC[C@H]1O[C@@](C#N)(c2ccc3c(N)ncnn23)[C@H](O)[C@@H]1O)OCc1ccccc1 [Compound 15d, 1-O-octadecyl-2-O-benzyl-glyceryl-sn-3-phospho-RVn]
synthesis of remdesivir triphosphate (RVn-TP) (VERO E6 cells; exposure to 1 micromolar drug, up to 48 hours): increased progressively to 48 hours | tolerability / clinical signs ([15]; oral gavage every 12 hours for seven days, 16.9 and 13.2 mg/kg): well tolerated, and no adverse clinical signs were noted | time for plasma levels to fall by 50% ([15]; oral gavage): about 5 hours

1-O-octadecyl-2-O-benzyl-sn-glycerol-benzyl-phospho-RVn [Compound 16]
EC50 (Human Coronavirus 229E [16]): 1500 ± 930 nM | EC90 (Human Coronavirus 229E [16]): 4270 ± 880 nM | EC50 (SARS-CoV-2 [17]): 3540 ± 583 nM | EC90 (SARS-CoV-2 [17]): 16400 ± 5980 nM | EC50 (SARS-CoV-2 [18]): 7440 ± 818 nM | EC90 (SARS-CoV-2 [18]): 15300 ± 5910 nM

N#C[C@@]1(c2ccc3c(N)ncnn23)O[C@H](CO)[C@@H](O)[C@H]1O [RVn, 2-C-(4-aminopyrrolo[2,1-f][1,2,4]triazin-7-yl)-2,5-anhydro-D-altrononitrile]
EC50 [1]: 1560 nM | EC90 [1]: 2690 nM | Selectivity ([2]; Selectivity index, CC50/EC50, Vero E6 cells, Example 3): >58.8 | EC50 [2]: 1700 nM | EC90 [2]: 3200 ± 770 nM | EC50 [19]: 380 nM | EC90 [19]: 770 nM | Selectivity ([3]; Selectivity index CC50/EC50, PSC-human lung cells): >135 | EC50 [3, 21]: 740 nM | Selectivity ([4]; Selectivity index CC50/EC50, Calu-3 cells): >666 | EC50 [4]: 150 nM | EC90 [4]: 180 nM | Selectivity ([5]; Selectivity index CC50/EC50, Huh7.5 cells): >312 | EC50 [5]: 320 nM | EC90 [5]: 730 nM | Selectivity ([6]; Selectivity index CC50/EC50, Caco-2 cells): >104 | EC50 [6, 22]: 960 nM | CC50 [20]: > 50000 nM

— patent US12173029B2, “Antiviral prodrugs, pharmaceutical formulations, and methods” (priority 2020, dated 2024)
